Data published in patent publication US9428519B2, “Acylated derivative of homoharringtonine, preparation method therefor, and application thereof” (HANGZHOU BENSHENG PHARMACEUTICAL CO., LTD., priority 2011, dated 2016).
Values after ≈ are worked out from the molar mass of the structure shown.

Columns and labels:
[1] = test system: Jurkat (acute lymphoblastic leukemia, ALL); assay: MTT growth inhibition of leukemia cells, 72 h; assay type: cell-based, human
Text: (§1) Leukemia cell lines: leukemia cell lines: K562/adr (drug-resistant, chronic myeloid leukemia, CML), NB4 (acute promyelocytic leukemia, AML), Kasumi-1 (acute myeloid leukemia M2 type, AML-M2), Jurkat (acute lymphoblastic leukemia, ALL), all of which are donated by Cancer Research Institute of Zhejiang University, China; and H9 (acute lymphoblastic leukemia, ALL), which is purchased from China Center for Type Culture Collection (CCTCC).
(§2) Reagents: The standard sample of homoharringtonine (HHT) is purchased from Taihua Natural Plant Pharmaceutical Co., Ltd., Shaanxi, China, the homoharringtonine derivatives of the present invention.
(§3) Obtaining 6000 well-growing leukemia cells and inoculating them into wells of a 96-well cell culture plate. The culture medium is the 1640 cell culture medium containing 10% fetal bovine serum. After adding the homoharringtonine derivatives of different concentrations and mixing uniformly, placing the plate in a carbon dioxide cell incubator (5% CO2) at 37° C. and incubated for 72 hours. Then the viable cell concentration is determined by the MTT method. In this experiment, the cell viability in control group (not treated with any compound) is set as 100%. On such basis, the cell viability (%) after treatment and the 50% inhibiting concentration of the compound for the leukemia cell growth at 72 hours (IC50 value of 72 hours) are calculated.

[2] = test system: Kasumi-1 (acute myeloid leukemia M2 type, AML-M2); assay: MTT growth inhibition of leukemia cells, 72 h; assay type: cell-based, human
Text: as §1, §2, §3

[3] = test system: K562/adr (drug-resistant, chronic myeloid leukemia, CML); assay: MTT growth inhibition of leukemia cells, 72 h; assay type: cell-based, human; details: MTT
Text: as §1, §2, §3

[4] = test system: H9 (acute lymphoblastic leukemia, ALL); assay: MTT growth inhibition of leukemia cells, 72 h; assay type: cell-based, human; details: MTT
Text: as §1, §2, §3

[5] = test system: NB4 (acute promyelocytic leukemia, AML); assay: MTT growth inhibition of leukemia cells, 72 h; assay type: cell-based, human; details: MTT
Text: as §1, §2, §3

[6] = test system: RPMI8226 (multiple myeloma); assay: MTT growth inhibition of multiple myeloma cells, 72 h; assay type: cell-based, human
Method: Multiple myeloma and lymphoma cell lines: RPMI8226 (multiple myeloma), purchased from Fuxiang Bio-tech Co. Ltd., Shanghai, China.
as §3

[7] = test system: Becap37 (human breast cancer cell); assay: MTT growth inhibition of human solid tumor cells, 72 h; assay type: cell-based
Method: (§4) Human solid tumor cell lines: Hep-2 (laryngeal carcinoma), A549 (human lung cancer), CaES-17 (esophageal cancer cell), PC-3 (prostate cancer), CNE (nasopharyngeal carcinoma cell), and SK-OV-3 (ovarian cancer cell), all of which are purchased from China Center For Type Culture Collection; RKO (human colon adenocarcinoma cell), MGC 803 (human gastric cancer cell), MG63 (osteosarcoma) and U87 MG (malignant glioma cell), all of which are purchased from Fuxiang Bio-tech Co. Ltd., Shanghai, China; PANC-1 (pancreatic cancer), Huh7 (human liver cancer cell), Becap37 (human breast cancer cell), and Hela (human cervical cancer cell), all of which are donated by Cancer Research Institute of Zhejiang University, China.
(§5) Obtaining 4000 well-growing human solid tumor cells and inoculating them into wells of a 96-well cell culture plate. The culture medium is DMEM High Glucose cell culture medium containing 10% fetal bovine serum. The plate is placed in a carbon dioxide cell incubator (5% CO2) at 37° C. and incubated for 24 hours. After adding the homoharringtonine derivatives of different concentration and mixing uniformly, the plate is placed in a carbon dioxide cell incubator (5% CO2) at 37° C. and incubated for 72 hours. Then the viable cell concentration is determined by the MTT method and the cell viability (%) after drug treatment is calculated. In this experiment, the cell viability of control group (not treated with any compound) is set as 100%.

[8] = test system: SK-OV-3 (ovarian cancer cell); assay: as above; assay type: cell-based
Method: as §4, §5

[9] = test system: CaES-17 (esophageal cancer cell); assay: as above; assay type: cell-based
Method: as §4, §5

[10] = test system: U87 MG (malignant glioma cell); assay: as above; assay type: cell-based
Method: as §4, §5

[11] = test system: A549 (human lung cancer); assay: as above; assay type: cell-based
Method: as §4, §5

[12] = test system: Huh7 (human liver cancer cell); assay: as above; assay type: cell-based
Method: as §4, §5

[13] = test system: PANC-1 (pancreatic cancer); assay: as above; assay type: cell-based
Method: as §4, §5

[14] = test system: PC-3 (prostate cancer); assay: as above; assay type: cell-based; details: MTT
Method: as §4, §5

[15] = test system: MG63 (osteosarcoma); assay: as above; assay type: cell-based
Method: as §4, §5

[16] = test system: RKO (human colon adenocarcinoma cell); assay: as above; assay type: cell-based; details: MTT
Method: as §4, §5

[17] = test system: CNE (nasopharyngeal carcinoma cell); assay: as above; assay type: cell-based; details: MTT
Method: as §4, §5

[18] = test system: Hep-2 (laryngeal carcinoma); assay: as above; assay type: cell-based
Method: as §4, §5

[19] = test system: Hela (human cervical cancer cell); assay: as above; assay type: cell-based; details: MTT
Method: as §4, §5

[20] = test system: MGC 803 (human gastric cancer cell); assay: as above; assay type: cell-based
Method: as §4, §5

`COC(=O)C[C@@](CCCC(C)(C)OC(C)=O)(OC(C)=O)C(=O)O[C@@H]1C(OC)=C[C@]23CCCN2CCc2cc4c(cc2[C@H]13)OCO4` [BS-HH-001, 2,6-diacetylhomoharringtonine] gave an IC50 ([1]; Homo sapiens, Jurkat) of 0.012 mg/L (≈ 0.0191 µM), an IC90 ([1]; Homo sapiens, Jurkat) of at least 16 mg/L and an IC50 ([2]; Homo sapiens, Kasumi 1, MTT) of 0.006 mg/L (≈ 0.00953 µM). The IC90 ([2]; Homo sapiens, Kasumi 1, MTT) was 0.021 mg/L (≈ 0.0333 µM), the IC50 ([3]; Homo sapiens, K562/Adr) was 0.062 mg/L (≈ 0.0985 µM) and the IC90 ([3]; Homo sapiens, K562/Adr) was 1.18 mg/L (≈ 1.87 µM). The IC50 ([4]; Homo sapiens) was 0.02 mg/L (≈ 0.0318 µM), the IC90 ([4]; Homo sapiens) was 0.05 mg/L (≈ 0.0794 µM) and the IC50 ([5]; Homo sapiens) was 0.01 mg/L (≈ 0.0159 µM). For the same compound, the IC90 ([5]; Homo sapiens) was 0.022 mg/L (≈ 0.0349 µM), the “anti-RPMI8226 (multiple myeloma) effectiveness” value [6] was “particularly effective” and the IC50 ([6]; Homo sapiens, RPMI-8226, MTT) was 0.009 mg/L (≈ 0.0143 µM). For the same compound, the IC90 ([6]; Homo sapiens, RPMI-8226, MTT) was 0.12 mg/L (≈ 0.191 µM), the IC50 ([7]; Homo sapiens) was 0.015 mg/L (≈ 0.0238 µM) and the IC90 ([7]; Homo sapiens) was 14 mg/L (≈ 22.2 µM). The IC50 ([8]; Homo sapiens, SK-OV-3, MTT) was 0.12 mg/L (≈ 0.191 µM), the IC90 ([8]; Homo sapiens, SK-OV-3, MTT) was over 16 mg/L and the IC50 ([9]; Homo sapiens, CaEs17) was 0.062 mg/L (≈ 0.0985 µM). The IC90 ([9]; Homo sapiens, CaEs17) was over 16 mg/L, the IC50 ([10]; Homo sapiens, U-87 MG) was 0.018 mg/L (≈ 0.0286 µM) and the IC90 ([10]; Homo sapiens, U-87 MG) was 0.11 mg/L (≈ 0.175 µM). It also gave an IC50 ([11]; Homo sapiens, A549) of 0.03 mg/L (≈ 0.0476 µM), an IC90 ([11]; Homo sapiens, A549) of over 16 mg/L and an IC50 ([12]; Homo sapiens, Huh-7) of 0.016 mg/L (≈ 0.0254 µM). It also gave an IC90 ([12]; Homo sapiens, Huh-7) of 0.13 mg/L (≈ 0.206 µM), an IC50 ([13]; Homo sapiens, PANC-1, MTT) of 0.036 mg/L (≈ 0.0572 µM) and an IC90 ([13]; Homo sapiens, PANC-1, MTT) of over 16 mg/L. It also gave an IC50 ([14]; Homo sapiens) of 0.029 mg/L (≈ 0.0461 µM), an IC90 ([14]; Homo sapiens) of over 16 mg/L and an IC50 ([15]; Homo sapiens, MG-63, MTT) of 0.02 mg/L (≈ 0.0318 µM). For the same compound, the IC90 ([15]; Homo sapiens, MG-63, MTT) was 2.4 mg/L (≈ 3.81 µM), the IC50 ([16]; Homo sapiens) was 0.007 mg/L (≈ 0.0111 µM) and the IC90 ([16]; Homo sapiens) was 0.02 mg/L (≈ 0.0318 µM). For the same compound, the IC50 ([17]; Homo sapiens) was 0.062 mg/L (≈ 0.0985 µM), the IC90 ([17]; Homo sapiens) was over 16 mg/L and the IC50 ([18]; Homo sapiens, HEp-2) was 0.026 mg/L (≈ 0.0413 µM). The IC90 ([18]; Homo sapiens, HEp-2) was over 16 mg/L, the IC50 ([19]; Homo sapiens, HeLa) was 0.026 mg/L (≈ 0.0413 µM) and the IC90 ([19]; Homo sapiens, HeLa) was over 16 mg/L. The IC50 ([20]; Homo sapiens, MGC-803) was 0.03 mg/L (≈ 0.0476 µM) and the IC90 ([20]; Homo sapiens, MGC-803) was 0.66 mg/L (≈ 1.05 µM).
With `COC(=O)C[C@@](CCCC(C)(C)OC(=O)c1scnc1C)(OC(=O)c1scnc1C)C(=O)O[C@@H]1C(OC)=C[C@]23CCCN2CCc2cc4c(cc2[C@H]13)OCO4` [BS-HH-0722] the “IC50 Jurkat” value [1] was 0.3 mg/L (≈ 0.377 µM), the “IC90 Jurkat” value [1] was at least 16 mg/L and the “IC50 Kasumi-1” value ([2]; MTT) was 0.14 mg/L (≈ 0.176 µM). The “IC90 Kasumi-1” value ([2]; MTT) was 0.47 mg/L (≈ 0.591 µM), the “IC50 K562/adr” value [3] was 0.9 mg/L (≈ 1.13 µM) and the “IC90 K562/adr” value [3] was 3.72 mg/L (≈ 4.67 µM). For the same compound, the “IC50 H9” value [4] was 0.47 mg/L (≈ 0.591 µM), the “IC90 H9” value [4] was 1.24 mg/L (≈ 1.56 µM) and the “IC50 NB4” value [5] was 0.2 mg/L (≈ 0.251 µM). The “IC90 NB4” value [5] was 0.49 mg/L (≈ 0.616 µM), the “IC50 RPMI8226” value ([6]; MTT) was 0.29 mg/L (≈ 0.364 µM) and the “IC90 RPMI8226” value ([6]; MTT) was 1.82 mg/L (≈ 2.29 µM). For the same compound, the “IC50 Becap37” value [7] was 0.47 mg/L (≈ 0.591 µM), the “IC90 Becap37” value [7] was 16 mg/L (≈ 20.1 µM) and the “IC50 SK-OV-3” value ([8]; MTT) was 1.94 mg/L (≈ 2.44 µM). For the same compound, the “IC90 SK-OV-3” value ([8]; MTT) was over 16 mg/L, the “IC50 CaES-17” value [9] was 1.24 mg/L (≈ 1.56 µM) and the “IC90 CaES-17” value [9] was 16 mg/L (≈ 20.1 µM). For the same compound, the “IC50 U87 MG” value [10] was 0.67 mg/L (≈ 0.842 µM), the “IC90 U87 MG” value [10] was 3.42 mg/L (≈ 4.3 µM) and the “IC50 A549” value [11] was 0.89 mg/L (≈ 1.12 µM). For the same compound, the “IC90 A549” value [11] was over 16 mg/L, the “IC50 Huh7” value [12] was 0.66 mg/L (≈ 0.829 µM) and the “IC90 Huh7” value [12] was 7.6 mg/L (≈ 9.55 µM). The “IC50 PANC-1” value ([13]; MTT) was 0.83 mg/L (≈ 1.04 µM), the “IC90 PANC-1” value ([13]; MTT) was over 16 mg/L and the “IC50 PC-3” value [14] was 0.82 mg/L (≈ 1.03 µM). For the same compound, the “IC90 PC-3” value [14] was over 16 mg/L, the “IC50 MG 63” value ([15]; MTT) was 0.21 mg/L (≈ 0.264 µM) and the “IC90 MG 63” value ([15]; MTT) was 9.43 mg/L (≈ 11.8 µM). The “IC50 RKO” value [16] was 0.22 mg/L (≈ 0.276 µM), the “IC90 RKO” value [16] was 0.87 mg/L (≈ 1.09 µM) and the “IC50 CNE” value [17] was 0.77 mg/L (≈ 0.967 µM). For the same compound, the “IC90 CNE” value [17] was over 16 mg/L, the “IC50 Hep-2” value [18] was 0.48 mg/L (≈ 0.603 µM) and the “IC90 Hep-2” value [18] was over 16 mg/L. The “IC50 Hela” value [19] was 0.87 mg/L (≈ 1.09 µM), the “IC90 Hela” value [19] was over 16 mg/L and the “IC50 MGC 803” value [20] was 0.5 mg/L (≈ 0.628 µM). For the same compound, the “IC90 MGC 803” value [20] was 12 mg/L (≈ 15.1 µM).
